# From patent publication US11135236B2, “Retinoic acid receptor gamma agonists to attenuate anthracycline-induced cardiotoxicity” (Northwestern University, priority 2018, dated 2021)
# Tests used:
# [1] = test system: control hiPSC-CMs; assay: hiPSC-CM cell viability after 72 h doxorubicin (CellTiter-Glo); assay type: cell-based, human
# Experimental: (§1) 384-well plate-based cell viability, caspase 3/7 activity, and reactive oxygen species (ROS) assays. […] Luminescence was measured using a VarioSkan Lux Multi-Mode Reader (Thermo Scientific) with an integration time of 0.25 sec. 10 μM staurosporine (MedChemExpress) was used as a positive control. […] 10 μM staurosporine and 50 μM menadione (both MedChemExpress) was used as a positive control, respectively. Data were analyzed using Prism 7.0 software (GraphPad) using standard dose-response guidelines.
# [2] = test system: RARG-WT hiPSC-CMs; assay: as above; assay type: cell-based, human
# Experimental: as §1
# [3] = test system: control hiPSC-CMs; assay: caspase 3 and 7 activity after 24 h doxorubicin (Caspase 3/7-Glo); assay type: cell-based, human
# Experimental: as §1
# [4] = test system: RARG-OE hiPSC-CMs; assay: as above; assay type: cell-based, human
# Experimental: as §1
# [5] = test system: RARG-WT hiPSC-CMs; assay: as above; assay type: cell-based, human
# Experimental: as §1
# [6] = test system: MCF7; assay: breast cancer cell viability after 72 h of doxorubicin and RARG agonists co-treatment; assay type: cell-based, human; conditions: MCF7, doxorubicin 72 h, Vehicle (no agonist)
# Experimental: as §1
# (§2) Breast cancer cell lines. Four human breast cancer cell lines were used, MCF7 (adenocarcinoma, ATCC HTB-22) and Hs 578T (carcinsarcoma, ATCC HTB-126) both cultured in RPMI 1640 (Corning) with 10% FBS (Opti-Gold, GenDEPOT), MDA-MB-231 (adenocarcinoma, ATCC HTB-26) and MDA-MB-468 (adenocarcinoma, ATCC HTB-131) both cultured in DMEM (Corning) with 10% FBS. All cells were cultured on uncoated tissue culture plates (Greiner) and passaged with TrypLE Express (Gibco).
# [7] = test system: C57BL/6J Mice; assay: mouse model of doxorubicin-induced cardiomyopathy, echocardiography; assay type: in vivo; conditions: doxorubicin 3 mg kg^−1 intraperitoneal twice weekly for 3 weeks
# Description: Mouse model of doxorubicin-induced cardiomyopathy and drug administration. […] For the control group, we treated mice with corn oil in the same schedule as agonist administration. We recorded an echocardiogram once a week (day 0, day 7, day 14, and day 21) and terminated the experiment at day 21. Hearts were harvested for western blot analyses as mentioned above.
# Echocardiographic evaluation. Mice were studied at baseline and weekly during the protocol under light anesthesia with isoflurane (induction 3%, maintenance 1.5%). 2D images in the parastemal short axis were obtained with a GE Vivid 7 ultrasound system (GE Healthcare) equipped with a 13 MHz transducer. Left ventricular end-systolic (LVESD) and end-diastolic (LVEDD) dimensions were measured and left ventricular fractional shortening (FS) was calculated.
# [8] = test system: hiPSC-CMs; assay: DNA damage by γH2AX staining; assay type: cell-based, human; conditions: patient hiPSC-CMs, 24 h doxorubicin
# Experimental: Immunofluorescent staining. hiPSCs were dissociated with 0.5 mM EDTA and plated onto Matrigel-coated Nunc Lab-Tek II 8-chamber slides in E8 medium for three days (E8Y for the first 24 h). Cells were fixed, permeabilized, and stained for POU5F1, SSEA4, SOX2, TRA-1-60 with the PSC 4-Marker Immunocytochemistry Kit (Invitrogen) according to manufacturer's instructions. Cardiomyocytes were dissociated with Liberase TH (as above) and plated onto Matrigel-coated No 1.5 coverslips as previously described and allowed to adhere and spread for 4 days. Cells were fixed with 4% paraformaldehyde (Electron Microscopy Services) in DPBS for 15 min at RT, permeabilized with 1% saponin (MilliporeSigma) in DPBS for 15 min at RT, blocked with 3% bovine serum albumin (BSA, MilliporeSigma) in DPBS for 30 min at RT, and stained overnight in 3% BSA/DPBS at 4° C. with 1:200 polyclonal rabbit IgG anti-TNNT2 (Abcam, ab45932), 1:500 monoclonal mouse IgG1 anti-ACTN2 (Sigma, A7811), 1:200 monoclonal rabbit IgG RARG (Abcam, ab187159), or 1:200 monoclonal mouse IgG1 γH2AX (MilliporeSigma, 05-636). […]
# Flow cytometry-based DNA damage assay. […] Cells were analyzed using a CytoFLEX (Beckman Coulter) with CytExpert 2.0 software and Prism 7.0 software (GraphPad).
# [9] = test system: hiPSC-CMs; assay: reactive oxygen species assay (ROS-Glo H2O2); assay type: cell-based, human; conditions: isogenic hiPSC-CMs, 24 h doxorubicin
# Experimental: as §1
# [10] = test system: RARG-WT hiPSC-CMs; conditions: doxorubicin LD50, agonist 0 μM, 72 h
# Experimental: as §1
# [11] = test system: Hs 578T; assay: breast cancer cell viability after 72 h of doxorubicin and RARG agonists co-treatment; conditions: doxorubicin 72 h, Vehicle (no agonist)
# Experimental: as §1, §2
# [12] = test system: MDA-MB-231; assay: as above; conditions: MDA-MB-231, doxorubicin 72 h, Vehicle (no agonist)
# Experimental: as §1, §2
# [13] = test system: MDA-MB-468; assay: as above; conditions: MDA-MB-468, doxorubicin 72 h, Vehicle (no agonist)
# Experimental: as §1, §2
structure (smiles),measurement,setting,value
COc1cccc2c1C(=O)c1c(O)c3c(c(O)c1C2=O)C[C@@](O)(C(=O)CO)C[C@@H]3O[C@H]1C[C@H](N)[C@H](O)[C@H](C)O1 [doxorubicin],"half-maximal lethal dose (LD50), cell viability",[1],2.622 µM
same,"LD50, cell viability",[2],2.061 µM
same,"LD50, caspase 3 and 7 activity",[3],2.078 µM
same,"LD50, caspase 3 and 7 activity",[4],1.83 µM
same,"LD50, caspase 3 and 7 activity",[5],0.683 µM
same,LD50,[6],0.490 µM
same,"cardiac function, as assessed by fractional shortening",[7],steady decline in cardiac function
same,DNA damage (γH2AX),[8],concentration-dependent increase in DNA damage
same,ROS production,[9],concentration-dependent increase in ROS production
same,RARG-WT: LD50,[10],0.469 µM
same,LD50,[11],1.829 µM
same,LD50,[12],1.301 µM
same,LD50,[13],1.330 µM
